Experimental data: the kinase profiling compilation of Christmann-Franck et al. (2016)

What was measured:
Assay in all cases: radiometric filter-binding kinase assay
[1] = tested on: AKT2 (human), P31751 [S474D]
AURKB (human) = AURKB (human) (UniProt Q96GD4)
CAMKK2 (human) = CAMKK2 (human) (UniProt Q96RR4)
CHEK1 (human) = CHEK1 (human) (UniProt O14757)
CHEK2 (human) = CHEK2 (human) (UniProt O96017)
EPHB4 (human) = EPHB4 (human) (UniProt P54760)
GCK (human) = GCK (human) (UniProt Q12851)
IGF1R (human) = IGF1R (human) (UniProt P08069)
IKBKB (human) = IKBKB (human) (UniProt O14920); settings: compound 0.01 µM
MAP2K1 (human) = MAP2K1 (human) (UniProt Q02750)
MAP3K1 (human) = MAP3K1 (human) (UniProt Q13233)
MAP3K5 (human) = MAP3K5 (human) (UniProt Q99683)
MAPK1 (human) = MAPK1 (human) (UniProt P28482)
MAPK10 (human) = MAPK10 (human) (UniProt P53779)
MAPK15 (human) = MAPK15 (human) (UniProt Q8TD08)
MAPK3 (human) = MAPK3 (human) (UniProt P27361)
MAPK9 (human) = MAPK9 (human) (UniProt P45984)

MAP3K5 (human), sequence (Q99683 whole entry, looked up): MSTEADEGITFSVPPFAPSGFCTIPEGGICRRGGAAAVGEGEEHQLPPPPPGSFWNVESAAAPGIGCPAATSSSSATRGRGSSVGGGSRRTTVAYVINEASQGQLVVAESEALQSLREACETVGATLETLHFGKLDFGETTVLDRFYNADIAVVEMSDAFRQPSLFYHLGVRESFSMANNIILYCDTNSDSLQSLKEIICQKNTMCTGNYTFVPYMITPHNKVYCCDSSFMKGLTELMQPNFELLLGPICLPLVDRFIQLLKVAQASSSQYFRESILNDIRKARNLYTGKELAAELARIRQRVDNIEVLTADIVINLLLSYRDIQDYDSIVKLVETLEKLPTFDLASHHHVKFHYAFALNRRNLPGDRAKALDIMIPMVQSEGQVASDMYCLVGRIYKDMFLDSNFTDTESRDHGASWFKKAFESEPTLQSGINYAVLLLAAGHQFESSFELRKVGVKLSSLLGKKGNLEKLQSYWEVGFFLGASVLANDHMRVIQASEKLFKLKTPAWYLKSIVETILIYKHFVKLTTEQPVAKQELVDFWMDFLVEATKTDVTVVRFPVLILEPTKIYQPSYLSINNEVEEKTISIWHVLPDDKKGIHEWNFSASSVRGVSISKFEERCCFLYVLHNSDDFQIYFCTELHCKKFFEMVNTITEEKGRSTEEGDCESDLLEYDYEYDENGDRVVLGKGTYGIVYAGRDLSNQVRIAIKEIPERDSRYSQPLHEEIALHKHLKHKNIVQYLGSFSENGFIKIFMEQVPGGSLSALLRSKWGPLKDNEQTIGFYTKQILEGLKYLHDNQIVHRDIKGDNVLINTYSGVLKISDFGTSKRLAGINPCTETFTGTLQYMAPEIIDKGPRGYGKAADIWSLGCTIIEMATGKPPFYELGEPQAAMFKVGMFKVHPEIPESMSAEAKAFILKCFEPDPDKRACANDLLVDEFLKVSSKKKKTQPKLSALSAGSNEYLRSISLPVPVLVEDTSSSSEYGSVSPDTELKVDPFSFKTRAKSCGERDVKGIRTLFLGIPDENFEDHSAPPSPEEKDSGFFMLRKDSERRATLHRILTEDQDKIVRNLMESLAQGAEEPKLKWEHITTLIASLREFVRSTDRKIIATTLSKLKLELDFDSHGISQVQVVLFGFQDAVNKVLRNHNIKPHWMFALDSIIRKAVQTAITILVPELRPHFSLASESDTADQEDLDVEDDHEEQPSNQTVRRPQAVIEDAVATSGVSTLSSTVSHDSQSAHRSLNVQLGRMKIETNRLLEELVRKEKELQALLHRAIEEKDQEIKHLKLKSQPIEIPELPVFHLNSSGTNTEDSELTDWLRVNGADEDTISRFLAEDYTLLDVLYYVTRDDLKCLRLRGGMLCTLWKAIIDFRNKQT
EPHB4 (human), sequence (P54760 whole entry, looked up): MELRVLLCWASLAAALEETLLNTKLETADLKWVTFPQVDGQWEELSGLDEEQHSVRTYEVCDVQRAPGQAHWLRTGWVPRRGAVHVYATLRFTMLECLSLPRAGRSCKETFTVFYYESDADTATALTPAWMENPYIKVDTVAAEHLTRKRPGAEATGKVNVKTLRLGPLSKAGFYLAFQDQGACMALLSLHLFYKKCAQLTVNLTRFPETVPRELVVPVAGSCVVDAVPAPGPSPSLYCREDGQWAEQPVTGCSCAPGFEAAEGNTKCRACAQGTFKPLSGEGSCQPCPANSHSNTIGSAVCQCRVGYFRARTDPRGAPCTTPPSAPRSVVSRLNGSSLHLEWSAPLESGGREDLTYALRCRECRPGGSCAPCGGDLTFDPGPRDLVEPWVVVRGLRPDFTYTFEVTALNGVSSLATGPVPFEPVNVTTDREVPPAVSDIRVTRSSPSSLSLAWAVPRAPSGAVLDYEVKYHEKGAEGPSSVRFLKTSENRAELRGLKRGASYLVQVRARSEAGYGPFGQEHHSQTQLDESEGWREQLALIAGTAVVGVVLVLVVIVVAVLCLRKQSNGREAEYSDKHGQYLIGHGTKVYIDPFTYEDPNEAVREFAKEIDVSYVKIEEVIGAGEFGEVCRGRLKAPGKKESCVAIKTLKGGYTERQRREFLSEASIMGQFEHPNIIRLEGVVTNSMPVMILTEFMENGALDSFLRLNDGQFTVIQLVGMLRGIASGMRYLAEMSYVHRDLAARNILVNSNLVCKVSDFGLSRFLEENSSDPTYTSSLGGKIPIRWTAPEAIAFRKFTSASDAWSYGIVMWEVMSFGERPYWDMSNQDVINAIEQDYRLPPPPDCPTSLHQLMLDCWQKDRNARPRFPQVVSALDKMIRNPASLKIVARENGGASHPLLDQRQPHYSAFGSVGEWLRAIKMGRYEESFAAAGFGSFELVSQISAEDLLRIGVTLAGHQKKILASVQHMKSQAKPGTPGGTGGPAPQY
AKT2 (human), P31751 [S474D], sequence (P31751 whole entry S474D, looked up): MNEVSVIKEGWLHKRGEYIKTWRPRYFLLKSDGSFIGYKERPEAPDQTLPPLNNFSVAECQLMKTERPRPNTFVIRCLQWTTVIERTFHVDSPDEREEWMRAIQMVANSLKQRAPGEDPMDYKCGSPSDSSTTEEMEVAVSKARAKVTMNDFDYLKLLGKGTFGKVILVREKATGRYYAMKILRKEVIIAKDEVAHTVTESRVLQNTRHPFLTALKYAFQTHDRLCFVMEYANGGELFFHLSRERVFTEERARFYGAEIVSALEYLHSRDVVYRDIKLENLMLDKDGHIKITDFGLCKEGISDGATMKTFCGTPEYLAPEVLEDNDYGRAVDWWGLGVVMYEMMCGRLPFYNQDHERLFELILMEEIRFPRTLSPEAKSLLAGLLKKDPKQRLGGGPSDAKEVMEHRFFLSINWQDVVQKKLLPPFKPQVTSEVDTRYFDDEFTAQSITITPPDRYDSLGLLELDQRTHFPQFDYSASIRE
MAPK1 (human), sequence (P28482 whole entry, looked up): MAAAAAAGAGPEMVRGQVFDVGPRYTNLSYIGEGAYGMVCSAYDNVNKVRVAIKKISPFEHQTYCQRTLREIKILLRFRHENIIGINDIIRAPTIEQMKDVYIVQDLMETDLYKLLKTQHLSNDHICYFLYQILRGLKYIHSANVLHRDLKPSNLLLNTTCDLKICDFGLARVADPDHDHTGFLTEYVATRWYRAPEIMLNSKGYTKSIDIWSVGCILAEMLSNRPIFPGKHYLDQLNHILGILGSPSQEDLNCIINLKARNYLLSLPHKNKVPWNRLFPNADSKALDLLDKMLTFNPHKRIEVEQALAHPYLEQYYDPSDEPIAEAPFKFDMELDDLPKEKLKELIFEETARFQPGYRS
AURKB (human), sequence (Q96GD4 whole entry, looked up): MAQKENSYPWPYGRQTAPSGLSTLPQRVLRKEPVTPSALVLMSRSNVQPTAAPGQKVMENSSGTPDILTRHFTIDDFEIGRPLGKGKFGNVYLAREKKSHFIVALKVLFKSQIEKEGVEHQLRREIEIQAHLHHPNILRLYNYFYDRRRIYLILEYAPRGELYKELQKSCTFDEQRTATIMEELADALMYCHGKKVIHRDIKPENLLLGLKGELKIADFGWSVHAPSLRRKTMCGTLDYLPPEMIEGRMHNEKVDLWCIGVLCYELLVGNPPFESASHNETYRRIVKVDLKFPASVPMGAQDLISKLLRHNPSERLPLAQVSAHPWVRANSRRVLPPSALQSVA
CHEK2 (human), sequence (O96017 whole entry, looked up): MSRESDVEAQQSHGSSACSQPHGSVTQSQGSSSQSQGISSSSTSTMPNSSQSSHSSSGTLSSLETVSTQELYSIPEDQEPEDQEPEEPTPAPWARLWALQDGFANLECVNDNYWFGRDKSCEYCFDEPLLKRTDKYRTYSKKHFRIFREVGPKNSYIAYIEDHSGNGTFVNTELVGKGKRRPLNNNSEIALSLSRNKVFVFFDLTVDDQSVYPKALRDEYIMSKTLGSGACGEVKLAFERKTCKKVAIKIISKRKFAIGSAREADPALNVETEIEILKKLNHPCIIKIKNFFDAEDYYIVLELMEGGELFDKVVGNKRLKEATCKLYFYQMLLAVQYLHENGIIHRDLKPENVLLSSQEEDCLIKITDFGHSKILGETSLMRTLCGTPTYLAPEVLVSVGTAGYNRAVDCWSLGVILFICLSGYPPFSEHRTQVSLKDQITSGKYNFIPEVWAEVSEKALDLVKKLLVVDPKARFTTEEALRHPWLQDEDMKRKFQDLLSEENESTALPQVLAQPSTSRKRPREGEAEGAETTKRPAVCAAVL
MAPK10 (human), sequence (P53779 whole entry, looked up): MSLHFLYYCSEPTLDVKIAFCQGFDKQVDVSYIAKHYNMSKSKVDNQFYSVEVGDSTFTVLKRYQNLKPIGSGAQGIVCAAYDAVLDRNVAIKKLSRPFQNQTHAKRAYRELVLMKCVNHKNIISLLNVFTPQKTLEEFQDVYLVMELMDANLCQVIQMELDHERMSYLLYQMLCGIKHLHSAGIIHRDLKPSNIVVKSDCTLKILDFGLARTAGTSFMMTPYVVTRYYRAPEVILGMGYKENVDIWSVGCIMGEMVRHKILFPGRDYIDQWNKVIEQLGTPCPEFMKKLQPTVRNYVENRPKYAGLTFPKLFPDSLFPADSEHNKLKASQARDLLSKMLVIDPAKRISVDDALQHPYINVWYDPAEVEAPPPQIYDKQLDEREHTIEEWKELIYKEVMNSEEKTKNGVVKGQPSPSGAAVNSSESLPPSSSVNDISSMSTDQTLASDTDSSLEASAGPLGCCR
CHEK1 (human), sequence (O14757 whole entry, looked up): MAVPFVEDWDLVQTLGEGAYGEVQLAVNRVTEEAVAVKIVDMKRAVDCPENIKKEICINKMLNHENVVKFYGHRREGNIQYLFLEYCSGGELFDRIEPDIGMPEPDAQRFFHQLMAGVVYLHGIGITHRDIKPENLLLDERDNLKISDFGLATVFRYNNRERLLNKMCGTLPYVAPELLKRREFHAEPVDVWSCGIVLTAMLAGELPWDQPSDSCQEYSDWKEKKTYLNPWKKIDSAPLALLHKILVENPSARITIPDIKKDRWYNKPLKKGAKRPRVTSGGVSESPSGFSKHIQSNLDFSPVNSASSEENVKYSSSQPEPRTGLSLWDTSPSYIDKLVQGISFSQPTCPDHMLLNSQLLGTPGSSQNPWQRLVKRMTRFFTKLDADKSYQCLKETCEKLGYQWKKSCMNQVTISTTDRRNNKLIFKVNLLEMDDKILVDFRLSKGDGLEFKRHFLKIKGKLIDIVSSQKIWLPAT

With O=C(Nc1nc2cc(C(F)(F)F)cc(NC3CC3)n2n1)c1cccnc1 the residual activity ([1]; compound 0.01 µM) was 97%, the residual activity ([1]; compound 0.1 µM) was 103% and the residual activity ([1]; compound 1.0 µM) was 94%. The residual activity (AURKB (human); compound 0.01 µM) was 93%, the residual activity (AURKB (human); compound 0.1 µM) was 103% and the residual activity (AURKB (human); compound 1.0 µM) was 89%. For the same compound, the residual activity (CAMKK2 (human); compound 0.01 µM) was 108%, the residual activity (CAMKK2 (human); compound 0.1 µM) was 96% and the residual activity (CAMKK2 (human); compound 1.0 µM) was 105%. The residual activity (CHEK1 (human); compound 0.01 µM) was 103%, the residual activity (CHEK1 (human); compound 0.1 µM) was 99% and the residual activity (CHEK1 (human); compound 1.0 µM) was 104%. The residual activity (CHEK2 (human); compound 0.01 µM) was 93%, the residual activity (CHEK2 (human); compound 0.1 µM) was 114% and the residual activity (CHEK2 (human); compound 1.0 µM) was 89%. The residual activity (EPHB4 (human); compound 0.01 µM) was 106%, the residual activity (EPHB4 (human); compound 0.1 µM) was 104% and the residual activity (EPHB4 (human); compound 1.0 µM) was 96%. It also gave a residual activity (GCK (human); compound 0.01 µM) of 112%, a residual activity (GCK (human); compound 0.1 µM) of 103% and a residual activity (GCK (human); compound 1.0 µM) of 108%. It also gave a residual activity (IGF1R (human); compound 0.01 µM) of 88%, a residual activity (IGF1R (human); compound 0.1 µM) of 89% and a residual activity (IGF1R (human); compound 1.0 µM) of 79%. It also gave a residual activity (IKBKB (human)) of 79%, a residual activity (MAP2K1 (human); compound 0.01 µM) of 72% and a residual activity (MAP2K1 (human); compound 0.1 µM) of 76%. The residual activity (MAP2K1 (human); compound 1.0 µM) was 61%, the residual activity (MAP3K1 (human); compound 0.01 µM) was 97% and the residual activity (MAP3K1 (human); compound 0.1 µM) was 108%. It also gave a residual activity (MAP3K1 (human); compound 1.0 µM) of 91%, a residual activity (MAP3K5 (human); compound 0.01 µM) of 98% and a residual activity (MAP3K5 (human); compound 0.1 µM) of 54%. It also gave a residual activity (MAP3K5 (human); compound 1.0 µM) of 11%, a residual activity (MAPK1 (human); compound 0.01 µM) of 92% and a residual activity (MAPK1 (human); compound 0.1 µM) of 96%. For the same compound, the residual activity (MAPK1 (human); compound 1.0 µM) was 102%, the residual activity (MAPK10 (human); compound 0.01 µM) was 85% and the residual activity (MAPK10 (human); compound 0.1 µM) was 88%. It also gave a residual activity (MAPK10 (human); compound 1.0 µM) of 79%, a residual activity (MAPK15 (human); compound 0.01 µM) of 102% and a residual activity (MAPK15 (human); compound 0.1 µM) of 110%. For the same compound, the residual activity (MAPK15 (human); compound 1.0 µM) was 102%, the residual activity (MAPK3 (human); compound 0.01 µM) was 120% and the residual activity (MAPK3 (human); compound 0.1 µM) was 127%. The residual activity (MAPK3 (human); compound 1.0 µM) was 116%, the residual activity (MAPK9 (human); compound 0.01 µM) was 89% and the residual activity (MAPK9 (human); compound 0.1 µM) was 84%. The residual activity (MAPK9 (human); compound 1.0 µM) was 90%.
